Test results as given in patent US9358096B2, “Methods of treatment with drug eluting stents with prolonged local elution profiles with high local concentrations and low systemic concentrations” (Abbott Laboratories, priority 2007, dated 2016).
Like-named read-outs stand apart in the source and are kept apart here.

Assay: everolimus arterial tissue concentration in and next to the stented vessel
Assay type: in vivo, swine
Conditions: for Tmax: pig; for concentration at 3 days / concentration at 7 days / concentration at 28 days / concentration at 56 days / concentration at 90 days / concentration at 14 days: swine
[1] = 8×28 mm stent, 1070 μg everolimus (first aspect, matches group 1)
[2] = 10×28 mm stent, 1070 μg everolimus
[3] = 1070 μg, 8.0×28 mm stent, group 2, 1070 μg Lot #2, read-out: drug concentration in tissue proximal to stented region
[4] = 3209 μg, 8.0×28 mm stent, group 3, 3209 μg, read-out: drug concentration in tissue distal to stented region
[5] = 3209 μg, 8.0×28 mm stent, group 3, 3209 μg, read-out: drug concentration in tissue proximal to stented region
[6] = arterial tissue distal to stented region (unstented), 1070 μg, 10.0×28 mm stent, 1070 μg, read-out: drug concentration in tissue distal to stented region
[7] = arterial tissue of stented region, 1070 μg, 8.0×28 mm stent, group 2, 1070 μg Lot #2, read-out: drug concentration in tissue of stented region
[8] = arterial tissue of stented region, 1070 μg, 10.0×28 mm stent, 1070 μg, read-out: drug concentration in tissue of stented region
[9] = arterial tissue of the stented region, other: drug-eluting stent implanted in iliofemoral arteries, 1070 μg, 10.0×28 mm stent, 1070 μg, read-out: drug concentration in tissue of stented region
[10] = arterial tissue proximal to stented region (unstented), 1070 μg, 10.0×28 mm stent, 1070 μg, read-out: drug concentration in tissue proximal to stented region
[11] = arterial tissue, distal stented region (D), 7.0×100 mm stent, read-out: Mean Arterial Tissue Concentration, D distal stented region
[12] = arterial tissue, medial stented region (C), 7.0×100 mm stent, read-out: Mean Arterial Tissue Concentration, C medial stented region
[13] = arterial tissue, proximal stented region (B), 7.0×100 mm stent, read-out: Mean Arterial Tissue Concentration, B proximal stented region
[14] = arterial tissue, stented region, 3209 μg, 8.0×28 mm stent, group 3, 3209 μg, read-out: drug concentration in tissue of stented region
[15] = arterial tissue, unstented segment distal to stented region, 1070 μg, 8.0×28 mm stent, group 2, 1070 μg Lot #2, read-out: drug concentration in tissue distal to stented region
[16] = other: drug-eluting stent implanted in iliofemoral arteries, 1070 μg, 10.0×28 mm stent, 1070 μg, read-out: drug concentration in tissue distal to stented region
[17] = other: drug-eluting stent implanted in iliofemoral arteries, 1070 μg, 10.0×28 mm stent, 1070 μg, read-out: drug concentration in tissue proximal to stented region

CO[C@H]1C[C@@H]2CC[C@@H](C)[C@@](O)(O2)C(=O)C(=O)N2CCCC[C@H]2C(=O)O[C@H]([C@H](C)C[C@@H]2CC[C@@H](OCCO)[C@H](OC)C2)CC(=O)[C@H](C)/C=C(\C)[C@@H](O)[C@@H](OC)C(=O)[C@H](C)C[C@H](C)/C=C/C=C/C=C/1C [everolimus, 40-O-(2-hydroxyethyl)-rapamycin]
tissue Cmax (7×100 mm stent, 3777 μg everolimus): ≥ 16347 ng/g
tissue Cmax [1]: ≥ 12946 ng/g
tissue Tmax [1]: 72 h
tissue Cmax (8×28 mm stent, 1070 μg everolimus (second aspect, matches group 2)): ≥ 8709 ng/g
tissue Cmax (8×28 mm stent, 3209 μg everolimus): ≥ 22027 ng/g
tissue Cmax [2]: ≥ 6607 ng/g
tissue Tmax [2]: 72 h
Tmax (arterial tissue of the stented vessel, 1070 ug, 8×28 mm stent, 1070 μg everolimus (second aspect, matches group 2)): 72 h
Tmax (arterial tissue of the stented vessel, 3209 ug, 8×28 mm stent, 3209 μg everolimus): 72 h
Tmax (arterial tissue, 3777 ug, 7×100 mm stent, 3777 μg everolimus): 72 h
concentration at 3 days [3]: 533 ng/g
concentration at 7 days [3]: 104 ng/g
concentration at 28 days [3]: 50 ng/g
concentration at 56 days [3]: 10 ng/g
concentration at 90 days [3]: 16 ng/g
concentration at 3 days [4]: 856 ng/g
concentration at 3 days [5]: 520 ng/g
concentration at 7 days [4]: 910 ng/g
concentration at 7 days [5]: 698 ng/g
concentration at 14 days [4]: 1120 ng/g
concentration at 14 days [5]: 307 ng/g
concentration at 28 days [4]: 414 ng/g
concentration at 28 days [5]: 136 ng/g
concentration at 90 days [4]: 63 ng/g
concentration at 90 days [5]: 55 ng/g
concentration at 7 days [6]: 208 ng/g
concentration at 14 days [6]: 251 ng/g
concentration at 28 days [6]: 86 ng/g
concentration at 3 days [7]: 8710 ng/g
concentration at 7 days [7]: 3590 ng/g
concentration at 28 days [7]: 1850 ng/g
concentration at 56 days [7]: 2190 ng/g
concentration at 90 days [7]: 1270 ng/g
concentration at 14 days [8]: 4140 ng/g
concentration at 28 days [8]: 3930 ng/g
concentration at 3 days [9]: 6610 ng/g
concentration at 7 days [9]: 5100 ng/g
concentration at 90 days [9]: 2300 ng/g
concentration at 14 days [10]: 40 ng/g
concentration at 28 days [10]: 12 ng/g
concentration at 3 days [11]: 12400 ng/g
concentration at 7 days [11]: 9630 ng/g
concentration at 14 days [11]: 6530 ng/g
concentration at 28 days [11]: 4280 ng/g
concentration at 90 days [11]: 2400 ng/g
concentration at 3 days [12]: 16300 ng/g
concentration at 7 days [12]: 11400 ng/g
concentration at 14 days [12]: 5240 ng/g
concentration at 28 days [12]: 4150 ng/g
concentration at 90 days [12]: 2700 ng/g
concentration at 3 days [13]: 10900 ng/g
concentration at 7 days [13]: 7890 ng/g
concentration at 14 days [13]: 4820 ng/g
concentration at 28 days [13]: 3620 ng/g
concentration at 90 days [13]: 2210 ng/g
concentration at 3 days [14]: 22000 ng/g
concentration at 7 days [14]: 17200 ng/g
concentration at 14 days [14]: 16500 ng/g
concentration at 28 days [14]: 13200 ng/g
concentration at 90 days [14]: 2460 ng/g
concentration at 3 days [15]: 1550 ng/g
concentration at 7 days [15]: 435 ng/g
concentration at 28 days [15]: 73 ng/g
concentration at 56 days [15]: 25 ng/g
concentration at 90 days [15]: 11 ng/g
concentration at 3 days [16]: 278 ng/g
concentration at 3 days [17]: 100 ng/g
concentration at 7 days [17]: 37 ng/g
concentration at 90 days [16]: 8 ng/g
concentration at 90 days [17]: 7 ng/g
concentration at 3 days (7.0×100 mm stent, read-out: Mean Arterial Tissue Concentration, A non-stented region proximal to stented region): 269 ng/g
concentration at 3 days (7.0×100 mm stent, read-out: Mean Arterial Tissue Concentration, E non-stented region distal to stented region): 263 ng/g
